Test results from patent US20230227427A1, “IL-17A MODULATORS” (SANOFI, priority 2010, published 2023).

Target: T1, human recombinant IL-17A (Homo sapiens, UniProt Q16552)
T1 construct: purchased R&D Systems 7955-IL/CF
T1 sequence (Q16552 24-155): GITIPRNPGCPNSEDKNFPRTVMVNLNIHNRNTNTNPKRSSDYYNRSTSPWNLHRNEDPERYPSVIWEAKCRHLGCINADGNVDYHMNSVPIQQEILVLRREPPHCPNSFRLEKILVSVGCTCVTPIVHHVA
Test: IL-17A AlphaLISA assay (block binding of IL-17A to its receptor IL-17RA)
Details: compounds pre-incubated with the IL-17A for 30 min (indicated by * in Table A); read-out: AlphaLISA pIC50 (converted)
How it was run: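 PBS with 0.05% Tween-20 and 0.1% BSA. IL-17A stock 7.5 nM, IL-17RA/Fc stock 5 nM; compound–cytokine pre-incubation 24 h at RT, or 30 min where marked, then 90 min with receptor. pIC50 from 4-parameter logistic AlphaLISA signal, normalised to DMSO and 6 μM reference inhibitor.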

| SMILES | IC50 |
| --- | --- |
| COCc1noc(C)c1-c1ccc(NC(=O)[C@@H](NC(=O)c2ccnn2C)[C@H]2CC[C@H](C)CC2)nc1 [Example 142, N—((S)-2-((5-(3-(methoxymethyl)-5-methylisoxazol-4-yl)pyridin-2-yl)amino)-1-((1r,4S)-4-methylcyclohexyl)-2-oxoethyl)-1-methyl-1H-pyrazole-5-carboxamide] | 398 nM |
| CCc1nocc1C(=O)N[C@H](C(=O)Nc1ccc(-c2c(C)cnn2C)cn1)C1CCC(F)(F)CC1 [Example 144, (S)—N-(1-(4,4-difluorocyclohexyl)-2-((5-(1,4-dimethyl-1H-pyrazol-5-yl)pyridin-2-yl)amino)-2-oxoethyl)-3-ethylisoxazole-4-carboxamide] | 794 nM |
| Cc1cnn(C)c1-c1ccc(NC(=O)[C@@H](NC(=O)c2ccnn2C)[C@H]2CC[C@H](C)CC2)cn1 [Example 145, N—((S)-2-((6-(1,4-dimethyl-1H-pyrazol-5-yl)pyridin-3-yl)amino)-1-((1r,4S)-4-methylcyclohexyl)-2-oxoethyl)-1-methyl-1H-pyrazole-5-carboxamide] | 398 nM |
| Cc1cc(NC(=O)[C@@H](NC(=O)c2ccnn2C)[C@H]2CC[C@H](C)CC2)ncc1-c1ccnn1C [Example 146, 1-methyl-N—((S)-2-((4-methyl-5-(1-methyl-1H-pyrazol-5-yl)pyridin-2-yl)amino)-1-((1r,4S)-4-methylcyclohexyl)-2-oxoethyl)-1H-pyrazole-5-carboxamide] | 501 nM |
| CCn1nccc1C(=O)N[C@H](C(=O)Nc1cnc(-c2c(C)cnn2C)nc1)[C@H]1CC[C@H](C)CC1 [Example 147, N—((S)-2-((2-(1,4-dimethyl-1H-pyrazol-5-yl)pyrimidin-5-yl)amino)-1-((1r,4S)-4-methylcyclohexyl)-2-oxoethyl)-1-ethyl-1H-pyrazole-5-carboxamide] | 398 nM |
| Cc1nnn(C)c1-c1ccc(NC(=O)[C@@H](NC(=O)c2ccnn2C)C2CCCCCC2)nc1 [Example 148, (S)—N-(1-cycloheptyl-2-((5-(1,4-dimethyl-1H-1,2,3-triazol-5-yl)pyridin-2-yl)amino)-2-oxoethyl)-1-methyl-1H-pyrazole-5-carboxamide] | 200 nM |
| CCn1nccc1C(=O)N[C@H](C(=O)Nc1ccc(-c2c(C)nnn2C)cn1)C1CCCCCC1 [Example 149, (S)—N-(1-cycloheptyl-2-((5-(1,4-dimethyl-1H-1,2,3-triazol-5-yl)pyridin-2-yl)amino)-2-oxoethyl)-1-ethyl-1H-pyrazole-5-carboxamide] | 79.4 nM |
| COCc1onc(C)c1-c1ccc(NC(=O)[C@@H](NC(=O)c2ccnn2C)C2CCCCCC2)nc1 [Example 150, (S)—N-(1-cycloheptyl-2-((5-(5-(methoxymethyl)-3-methylisoxazol-4-yl)pyridin-2-yl)amino)-2-oxoethyl)-1-methyl-1H-pyrazole-5-carboxamide] | 398 nM |
| Cc1nccc(-c2ccc(NC(=O)[C@@H](NC(=O)c3ccnn3C)[C@H]3CC[C@H](C)CC3)nc2)c1C [Example 152, N—((S)-2-((2′,3′-dimethyl-[3,4′-bipyridin]-6-yl)amino)-1-((1r,4S)-4-methylcyclohexyl)-2-oxoethyl)-1-methyl-1H-pyrazole-5-carboxamide] | 794 nM |
| Cc1cc(-c2ccc(NC(=O)[C@@H](NC(=O)c3ccnn3C)[C@H]3CC[C@H](C)CC3)nc2)c(C)cn1 [Example 153, N—((S)-2-((2′,5′-dimethyl-[3,4′-bipyridin]-6-yl)amino)-1-((1r,4S)-4-methylcyclohexyl)-2-oxoethyl)-1-methyl-1H-pyrazole-5-carboxamide] | 398 nM |
| CCn1nccc1C(=O)N[C@H](C(=O)Nc1ccc(-c2c(C)cnn2C)nc1)[C@H]1CC[C@H](C)CC1 [Example 154, N—((S)-2-((6-(1,4-dimethyl-1H-pyrazol-5-yl)pyridin-3-yl)amino)-1-((1r,4S)-4-methylcyclohexyl)-2-oxoethyl)-1-ethyl-1H-pyrazole-5-carboxamide] | 251 nM |
| CCc1nocc1C(=O)N[C@H](C(=O)Nc1ccc(-c2c(C)cnn2C)nc1)[C@H]1CC[C@H](C)CC1 [Example 155, N—((S)-2-((6-(1,4-dimethyl-1H-pyrazol-5-yl)pyridin-3-yl)amino)-1-((1r,4S)-4-methylcyclohexyl)-2-oxoethyl)-3-ethylisoxazole-4-carboxamide] | 100 nM |
| Cc1cnn(C)c1-c1ncc(NC(=O)[C@@H](NC(=O)c2ccnn2C)[C@H]2CC[C@H](C)CC2)cn1 [Example 156, N—((S)-2-((2-(1,4-dimethyl-1H-pyrazol-5-yl)pyrimidin-5-yl)amino)-1-((1r,4S)-4-methylcyclohexyl)-2-oxoethyl)-1-methyl-1H-pyrazole-5-carboxamide] | 398 nM |
| CCn1nnc(C)c1-c1ccc(NC(=O)[C@@H](NC(=O)c2ccnn2C)C2CCCCCC2)nc1 [Example 157, (S)—N-(1-cycloheptyl-2-((5-(1-ethyl-4-methyl-1H-1,2,3-triazol-5-yl)pyridin-2-yl)amino)-2-oxoethyl)-1-methyl-1H-pyrazole-5-carboxamide] | 251 nM |
| Cc1noc(C)c1-c1cnc(NC(=O)[C@@H](NC(=O)c2ccnn2C)C2CCCCCC2)cn1 [Example 158, (S)—N-(1-cycloheptyl-2-((5-(3,5-dimethylisoxazol-4-yl)pyrazin-2-yl)amino)-2-oxoethyl)-1-methyl-1H-pyrazole-5-carboxamide] | 631 nM |
| CCn1nccc1C(=O)N[C@H](C(=O)Nc1ccc(-c2c(C)nnn2C)cn1)[C@H]1CC[C@H](C)CC1 [Example 159, N—((S)-2-((5-(1,4-dimethyl-1H-1,2,3-triazol-5-yl)pyridin-2-yl)amino)-1-((1r,4S)-4-methylcyclohexyl)-2-oxoethyl)-1-ethyl-1H-pyrazole-5-carboxamide] | 100 nM |
| Cc1nocc1C(=O)N[C@H](C(=O)Nc1ccc(-c2c(C)nnn2C)cn1)[C@H]1CC[C@H](C)CC1 [Example 160, N—((S)-2-((5-(1,4-dimethyl-1H-1,2,3-triazol-5-yl)pyridin-2-yl)amino)-1-((1r,4S)-4-methylcyclohexyl)-2-oxoethyl)-3-methylisoxazole-4-carboxamide] | 200 nM |
| Cc1nnn(C2CC2)c1-c1ccc(NC(=O)[C@@H](NC(=O)c2ccnn2C)C2CCCCCC2)nc1 [Example 161, (S)—N-(1-cycloheptyl-2-((5-(1-cyclopropyl-4-methyl-1H-1,2,3-triazol-5-yl)pyridin-2-yl)amino)-2-oxoethyl)-1-methyl-1H-pyrazole-5-carboxamide] | 200 nM |
| Cc1noc(C)c1-c1cnc(NC(=O)[C@@H](NC(=O)c2ccnn2C)C2CCCCCC2)c(F)c1 [Example 162, (S)—N-(1-cycloheptyl-2-((5-(3,5-dimethylisoxazol-4-yl)-3-fluoropyridin-2-yl)amino)-2-oxoethyl)-1-methyl-1H-pyrazole-5-carboxamide] | 200 nM |
| CCn1nccc1C(=O)N[C@H](C(=O)Nc1ncc(-c2c(C)noc2C)cc1F)C1CCCCCC1 [Example 163, (S)—N-(1-cycloheptyl-2-((5-(3,5-dimethylisoxazol-4-yl)-3-fluoropyridin-2-yl)amino)-2-oxoethyl)-1-ethyl-1H-pyrazole-5-carboxamide] | 63.1 nM |
| CCc1nocc1C(=O)N[C@H](C(=O)Nc1ncc(-c2c(C)noc2C)cc1F)C1CCCCCC1 [Example 164, (S)—N-(1-cycloheptyl-2-((5-(3,5-dimethylisoxazol-4-yl)-3-fluoropyridin-2-yl)amino)-2-oxoethyl)-3-ethylisoxazole-4-carboxamide] | 63.1 nM |
| Cc1cnn(C)c1-c1cnc(NC(=O)[C@@H](NC(=O)c2ccnn2C)C2CCCCCC2)nc1 [Example 165, (S)—N-(1-cycloheptyl-2-((5-(1,4-dimethyl-1H-pyrazol-5-yl)pyrimidin-2-yl)amino)-2-oxoethyl)-1-methyl-1H-pyrazole-5-carboxamide] | 631 nM |
| Cn1nccc1C(=O)N[C@H](C(=O)Nc1ccc(-c2c(O)cnn2C)cn1)C1CCCCCC1 [Example 166, (S)—N-(1-cycloheptyl-2-((5-(4-hydroxy-1-methyl-1H-pyrazol-5-yl)pyridin-2-yl)amino)-2-oxoethyl)-1-methyl-1H-pyrazole-5-carboxamide] | 631 nM |
| Cc1cnn(C)c1-c1ccc(NC(=O)[C@@H](NC(=O)c2cnnn2C)[C@H]2CC[C@H](C)CC2)nc1 [Example 167, N—((S)-2-((5-(1,4-dimethyl-1H-pyrazol-5-yl)pyridin-2-yl)amino)-1-((1r,4S)-4-methylcyclohexyl)-2-oxoethyl)-1-methyl-1H-1,2,3-triazole-5-carboxamide] | 316 nM |
| CCn1nncc1C(=O)N[C@H](C(=O)Nc1ccc(-c2c(C)cnn2C)cn1)[C@H]1CC[C@H](C)CC1 [Example 168, N—((S)-2-((5-(1,4-dimethyl-1H-pyrazol-5-yl)pyridin-2-yl)amino)-1-((1r,4S)-4-methylcyclohexyl)-2-oxoethyl)-1-ethyl-1H-1,2,3-triazole-5-carboxamide] | 158 nM |
| CCn1nccc1C(=O)N[C@H](C(=O)Nc1ccc(-c2c(C)noc2C)nc1)C1CCCCCC1 [Example 169, (S)—N-(1-cycloheptyl-2-((6-(3,5-dimethylisoxazol-4-yl)pyridin-3-yl)amino)-2-oxoethyl)-1-ethyl-1H-pyrazole-5-carboxamide] | 100 nM |
| Cc1nocc1C(=O)N[C@H](C(=O)Nc1ccc(-c2c(C)noc2C)nc1)C1CCCCCC1 [Example 170, (S)—N-(1-cycloheptyl-2-((6-(3,5-dimethylisoxazol-4-yl)pyridin-3-yl)amino)-2-oxoethyl)-3-methylisoxazole-4-carboxamide] | 158 nM |
